Laboratory results reported in patent US5324821A, “Method of preparing a lipoprotein modified by incorporation of a lipophilic active substance” (Universite Droit et Sante Lille II, priority 1990, dated 1994).

System: LDLs
Test: Quantities of drug incorporated into LDLs
Assay type: physicochemical
Details: ametantrone and mitoxantrone and esters; per particle of LDL; ametantrone esters by optical density at 614 nm; incubation 18 hours at 37° C.
Procedure: One mg of drug is dissolved in the minimum quantity of an organic solvent (chloroform) then the solvent is evaporated under reduced pressure.
Two hundred μl of washed Endolipide are then added. The tube is shaken vigorously, swirling for 1 minute to dissolve the drug in the lipid phase. The LDLs are then added in a quantity containing 1 mg of proteins, assayed by the method of Lowry modified by Peterson (see Lowry et al., J. Biol. Chem. 193, 265-275 (1951)) and 5 ml of LPDS. After stirring, the mixture is incubated for 18 hours at 37° C.
The LDLs are then separated by ultracentrifugation according to a KBr density gradient (centrifugation for 24 hours at 4° C. and 40,000 rpm).
The modified LDLs are then dialyzed against an NaCl solution, 140 mM, pH 8, then filtered under sterile conditions (0.22 μm) and stored under nitrogen.
drugs (on the modified LDLs): the ametantrone esters were tested after precipitation of apolipoprotein B with isopropanol. For this purpose, 100 μl of LDL are added to 100 μl of isopropanol and stirred for 1 minute then left to stand overnight at 10° C. with stirring. The mixture is then centrifuged for 30 minutes at 300 rpm. The supernatant is removed and evaporated. The residue is treated with 1 ml of chloroform. The optical density is read off at a wavelength of 614 nm and compared to a reference range of the drug.
The elliptinium esters are tested by HPLC according to the technique described by Samadi-Baboli (thesis cited above).

Point of comparison: CC/C=C\C/C=C\C/C=C\CCCCCCCC(=O)OCCNCCNc1ccc(NCCNCCOC(=O)CCCCCCC/C=C\C/C=C\C/C=C\CC)c2c1C(=O)c1c(O)ccc(O)c1C2=O [Mitoxantrone dilinolenate], “quantity of drug incorporated into LDLs (uptake)” value (from here on “quantity”) 22 molecules/particle. Against it:
- CCCCCCCC/C=C\CCCCCCCC(=O)OCCNCCNc1ccc(NCCNCCOC(=O)CCCCCCC/C=C\CCCCCCCC)c2c1C(=O)c1ccccc1C2=O [Ametantrone dioleate] — lower, 2 molecules/particle
- CCCCCCCCCCCCCCCC(=O)OCCNCCNc1ccc(NCCNCCOC(=O)CCCCCCCCCCCCCCC)c2c1C(=O)c1ccccc1C2=O [Ametantrone dipalmitate] — lower, 2 molecules/particle
- CCCCCCCCCCCCCCCCCC(=O)OCCNCCNc1ccc(NCCNCCOC(=O)CCCCCCCCCCCCCCCCC)c2c1C(=O)c1ccccc1C2=O [Ametantrone distearate] — lower, 1 molecules/particle
- CCCCCCCC/C=C\CCCCCCCC(=O)OCCNCCNc1ccc(NCCNCCO)c2c1C(=O)c1ccccc1C2=O [Ametantrone monooleate] — lower, 2 molecules/particle
- CCCCCCCCCCCCCCCCCC(=O)OCCNCCNc1ccc(NCCNCCO)c2c1C(=O)c1ccccc1C2=O [Ametantrone monostearate] — lower, 1 molecules/particle
- O=C1c2ccccc2C(=O)c2c(NCCNCCO)ccc(NCCNCCO)c21 [Ametantrone, reference compound] — lower, 1 molecules/particle
- O=C1c2c(O)ccc(O)c2C(=O)c2c(NCCNCCO)ccc(NCCNCCO)c21 [Mitoxantrone, reference compound] — lower, 1 molecules/particle
- CCCCCCCCCCCCCCCC(=O)OCCNCCNc1ccc(NCCNCCO)c2c1C(=O)c1ccccc1C2=O [Ametantrone monopalmitate] — lower, 2 molecules/particle
- CC/C=C\C/C=C\C/C=C\CCCCCCCC(=O)OCCNCCNc1ccc(NCCNCCO)c2c1C(=O)c1ccccc1C2=O [Ametantrone monolinolenate] — higher, 80 molecules/particle
- CC/C=C\C/C=C\C/C=C\CCCCCCCC(=O)OCCNCCNc1ccc(NCCNCCOC(=O)CCCCCCC/C=C\C/C=C\C/C=C\CC)c2c1C(=O)c1ccccc1C2=O [Ametantrone dilinolenate] — higher, 90 molecules/particle

Same assay, conditions: elliptinium esters, tested by HPLC; incubation 18 hours at 37° C.

With CCCCCCCCCCCCCCCC(=O)Oc1ccc2[nH]c3c(C)c4cc[n+](C)cc4c(C)c3c2c1 [Elliptinium palmitate] the “quantity” value was 58 μg per mg of protein.
In the case of CCCCCCCC/C=C\CCCCCCCC(=O)Oc1ccc2[nH]c3c(C)c4cc[n+](C)cc4c(C)c3c2c1 [Elliptinium oleate], the “quantity” value is reported as 83 μg per mg of protein.
With CCCCCCCCCCCCCCCCCC(=O)Oc1ccc2[nH]c3c(C)c4cc[n+](C)cc4c(C)c3c2c1 [Elliptinium stearate] the “quantity” value was 37 μg per mg of protein.
